Patent US8420634B2, “Amidine, thiourea and guanidine derivatives of 2-aminobenzothiazoles and aminobenzothiazines for their use as pharmacological agents for the treatment of neurodegenerative pathologies” (Rottapharm S.p.A., priority 2007, dated 2013)
Structures can show the parent of a compound that is named as a salt.

What was measured:
[1] = test system: cortical slices; experiment: in vitro ischemia (oxygen-glucose deprivation/re-oxygenation): glutamate released during re-oxygenation; assay type: cell-based; conditions: rat cortical slices
Method: (§1) Said in vitro ischemia model is generally accepted as a comprehensive model for the study and selection of products with neuroprotective activity.
(§2) Male Sprague-Dawley rats (350-450 g; Charles River Italia, Calco, Italy) have been sacrificed following anaesthesia (i.p. injection of 30 mg/kg ketamine hydrochloride and 8 mg/kg xylazine hydrochloride). The brain is rapidly removed and placed in aCSF (artificial Cerebro Spinal Fluid, composition expressed in mM: 120 NaCl, 2.5 KCl, 1.3 MgCl2, 1.0 NaH2PO4, 1.5 CaCl2, 26 NaHCO3, 11 glucose, saturated with 95% O2 −5% CO2, with a final pH of 7.4, osmolarity 285-290 mOsmol). The cortex is removed and sectioned into slices 400 μm thick.
The slices are then maintained in oxygenated aCSF supplemented with 400 μM ascorbic acid for 1 hour at room temperature.
Cortical slices total weight 33.6±2.6 mg, n=10) are incubated at 37° C., in 2 ml aCSF under a flow of 95% O2/5% CO2 for a period of 30 minutes. Oxygen-glucose deprivation is then implemented for 30 minutes by incubating in aCSF where the glucose has been substituted by sucrose and the oxygen mix air flow replaced with 95% N2/5% CO2. After the period of oxygen-glucose deprivation, the slices are placed in oxygenated aCSF for 90 minutes (re-oxygenation). In the treated samples, the compound of formula I is dissolved in aCSF at the concentrations described.
(§3) Neuronal damage is assessed quantitatively by measuring the glutamate and lactate dehydrogenase (LDH) released into the aCSF during the period of re-oxygenation. In particular, glutamate is measured fluorimetrically (excitation at 366 nm; emission at 450 nm) using the conversion of NAD^+ to NADH catalysed by glutamate dehydrogenase (Eilers et al., 1999) while LDH activity is determined spectrophotometrically by measuring the reduction in absorbance at 340 nm via the oxidation of NADH to NAD^+ (Gay et al., 1968).
All experiments have been conducted using slices obtained from at least 4 different rats. Data is reported as the S.E.M. and “n” is defined as the sample number. Data for glutamate and LDH activity is expressed as nmol/mg tissue and U/mg tissue, respectively. One unit (U) of LDH activity is defined as the correspondent yielding one micromole of lactate in one minute. Statistical analyses have been conducted using ANOVA followed by post-hoc Dunnett tests (GraphPad INSTAT v3.00, GraphPad Software, San Diego, Calif., USA).

[2] = test system: cortical slices; experiment: in vitro ischemia (oxygen-glucose deprivation/re-oxygenation): LDH activity released during re-oxygenation; assay type: cell-based; conditions: rat cortical slices, concentrations of 0.1-1 μM
Method: as §1
as §2, with “thick. […]” for “thick.”
as §3
All experiments have been conducted using slices obtained from at least 4 different rats. […] Data for glutamate and LDH activity is expressed as nmol/mg tissue and U/mg tissue, respectively. […]

Structure (SMILES)	melting point	also measured
CN/C(C)=N/C1=Nc2ccccc2CS1 (as salt: oxalate) [Example 17, N′-(4H-3,1-benzothiazin-2-yl)-N-methylacetamidine]	110 to 113 °C (dec.)	–
C/C(=N\C1=Nc2ccccc2CS1)N(C)C (as salt: oxalate) [Example 18, N′-(4H-3,1-benzothiazin-2-yl)-N,N-dimethylacetamidine]	154 to 157 °C (dec.)	–
CN/C(C)=N/C1=Nc2ccccc2SC1 (as salt: oxalate) [Example 21, N′-(2H-1,4-benzothiazin-3-yl)-N-methylacetamidine]	164 to 166 °C (dec.)	–
C/C(=N\C1=Nc2ccccc2SC1)N(C)C (as salt: oxalate) [Example 22, N′-(2H-1,4-benzothiazin-3-yl)-N,N-dimethylacetamidine]	120 to 122 °C (dec.)	–
C/C(=N/c1nc2ccc(OC(F)(F)F)cc2s1)N(C)C [Example 5, N,N-dimethyl-N′-[6-(trifluoromethoxy)benzothiazol-2-yl]acetamidine]	–	reduction in glutamate release ([1]; concentrations of 0.1-1 μM): remarkable reduction (a reduction in glutamic acid release and/or LDH activity to a value comprised of between 10% and 50% of that of the control sample)
CCNC(=S)Nc1nc2ccc(OC(F)(F)F)cc2s1 [Example 9, 1-Ethyl-3-[6-(trifluoromethoxy)benzothiazol-2-yl]thiourea]	199 to 200 °C	reduction in LDH activity [2]: remarkable reduction (a reduction in glutamic acid release and/or LDH activity to a value comprised of between 10% and 50% of that of the control sample)
CCCNC(=S)Nc1nc2ccc(OC(F)(F)F)cc2s1 [Example 10, 1-Propyl-3-[6-(trifluoromethoxy)benzothiazol-2-yl]thiourea]	226 to 228 °C	–
CC(C)NC(=S)Nc1nc2ccc(OC(F)(F)F)cc2s1 [Example 11, 1-Isopropyl-3-[6-(trifluoromethoxy)benzothiazol-2-yl]thiourea]	242 °C	–
CCCCNC(=S)Nc1nc2ccc(OC(F)(F)F)cc2s1 [Example 12, 1-Butyl-3-[6-(trifluoromethoxy)benzothiazol-2-yl]thiourea]	211 °C	reduction in glutamate release ([1]; concentrations of 0.1-1 μM): remarkable reduction (a reduction in glutamic acid release and/or LDH activity to a value comprised of between 10% and 50% of that of the control sample)
FC(F)(F)Oc1ccc2nc(NC(=S)Nc3ccccc3)sc2c1 [Example 13, 1-Phenyl-3-[6-(trifluoromethoxy)benzothiazol-2-yl]thiourea]	234 °C	–
Fc1ccc(NC(=S)Nc2nc3ccc(OC(F)(F)F)cc3s2)cc1 [Example 14, 1-(4-Fluorophenyl)3-[6-(trifluoromethoxy)benzothiazol-2-yl]thiourea]	207 °C	–
CCNC(=N)Nc1nc2ccc(OC(F)(F)F)cc2s1 [Example 15, 1-Ethyl-3-[6-(trifluoromethoxy)benzothiazol-2-yl]guanidine]	127 to 129 °C	–
CCCNC(=N)Nc1nc2ccc(OC(F)(F)F)cc2s1 [Example 16, 1-Propyl-3-[6-(trifluoromethoxy)benzothiazol-2-yl]guanidine]	110 to 111 °C	reduction in glutamate release ([1]; concentrations of 0.1-10 μM): remarkable reduction (a reduction in glutamic acid release and/or LDH activity to a value comprised of between 10% and 50% of that of the control sample)
CN/C(C)=N/C1=Nc2ccccc2CS1 [Example 17, N′-(4H-3,1-benzothiazin-2-yl)-N-methylacetamidine]	–	reduction in glutamate release ([1]; concentrations of 0.1-1 μM): remarkable reduction (a reduction in glutamic acid release and/or LDH activity to a value comprised of between 10% and 50% of that of the control sample)
C/C(=N\C1=Nc2ccccc2CS1)N(C)C [Example 18, N′-(4H-3,1-benzothiazin-2-yl)-N,N-dimethylacetamidine]	–	reduction in glutamate release ([1]; concentrations of 0.1-1 μM): remarkable reduction (a reduction in glutamic acid release and/or LDH activity to a value comprised of between 10% and 50% of that of the control sample)
CCN(CC)/C(C)=N/C1=Nc2ccccc2CS1 [Example 19, N′-(4H-3,1-benzothiazin-2-yl)-N,N-diethylacetamidine]	–	reduction in glutamate release ([1]; concentrations of 0.1-1 μM): remarkable reduction (a reduction in glutamic acid release and/or LDH activity to a value comprised of between 10% and 50% of that of the control sample)
CN/C(C)=N/C1=Nc2ccccc2SC1 [Example 21, N′-(2H-1,4-benzothiazin-3-yl)-N-methylacetamidine]	–	reduction in glutamate release ([1]; concentrations of 0.1-1 μM): remarkable reduction (a reduction in glutamic acid release and/or LDH activity to a value comprised of between 10% and 50% of that of the control sample)
CCNC(=S)NC1=Nc2ccccc2CS1 [Example 29, 1-(4H-3,1-benzothiazin-2-yl)-3-ethylthiourea]	191 to 196 °C	–
CCCNC(=S)NC1=Nc2ccccc2CS1 [Example 30, 1-(4H-3,1-benzothiazin-2-yl)-3-propylthiourea]	180 to 184 °C	–
CCNC(=S)NC1=Nc2ccc(OC(F)(F)F)cc2CS1 [Example 31, 1-Ethyl-3-[6-(trifluoromethoxy)-4H-3,1-benzothiazin-2-yl]thiourea]	169 to 172 °C	–
CCCNC(=S)NC1=Nc2ccc(OC(F)(F)F)cc2CS1 [Example 32, 1-Propyl-3-[6-(trifluoromethoxy)-4H-3,1-benzothiazin-2-yl]thiourea]	148 to 151 °C	–
CCNC(=S)NC1=Nc2ccc(OC(F)(F)F)cc2SC1 [Example 33, 1-Ethyl-3-[7-(trifluoromethoxy)-2H-1,4-benzothiazin-3-yl]thiourea]	199 to 201 °C	–
CCCNC(=S)NC1=Nc2ccc(OC(F)(F)F)cc2SC1 [Example 34, 1-Propyl-3-(7-trifluoromethoxy-2H-1,4-benzothiazin-3-yl)thiourea]	180 to 182 °C	–
